Experimental data as given in PubChem BioAssay (NCI).
Where “and” joins values, the source holds several entries; their conditions need not be identical. Equal values may be shown once.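 Values below derive from 48-hour exposures of cells grown in 96-well plates, with endpoints linearly interpolated between the two concentrations bracketing the appropriate inhibition level. At the GI50, growth is halved. TGI: total growth inhibition.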

Assays:
Test in all cases: inhibition of tumour cell growth, NCI panel, 48 h
[1] = system: HT29 colon
[2] = system: DMS 273 small cell lung
[3] = system: COLO 205 colon
[4] = system: CCRF-CEM leukemia
[5] = system: IGROV1 ovarian
[6] = system: NCI-H522 lung
[7] = system: A498 renal
[8] = system: MDA-MB-435
[9] = system: MDA-N
[10] = system: MCF7 breast

Structure (SMILES)	TGI [1] [µM]	TGI [2] [µM]	TGI [3] [µM]	TGI [4] [µM]	TGI [5]	TGI [6]	TGI [7] [µM]	TGI [8]	TGI [9]	TGI [10]	GI50 [8] [µM]	GI50 [1] [µM]	GI50 [9] [µM]	GI50 [4] [µM]	GI50 [5] [µM]	GI50 [6]	GI50 [7] [µM]	GI50 [10] [µM]	GI50 [2] [µM]	GI50 [3]
O=CN1CCN(C=S)CC1	> 100	> 100	> 100	> 100	> 100 µM	> 100 µM	> 100	–	–	–	–	–	–	–	–	–	–	–	–	–
CNC(=O)OCc1[nH]ccc2c(C)c3nc4ccc(OC)cc4c3cc12	> 100	> 100	> 28.1	13.6	> 100 µM	> 20.7 µM	30.7	–	–	–	–	–	–	–	–	–	–	–	–	–
COC(=O)C1=Cc2c(cc(OC)c(OC)c2OC)[C@H](c2ccc(OC)c(OC)c2OC)C1C(=O)OC (stereo partly specified)	> 100	> 100	> 100	> 100	> 100 µM	> 100 µM	> 100	–	–	–	–	–	–	–	–	–	–	–	–	–
Clc1cc(Cl)cc(Nc2nc3ccccc3nc2-c2cccs2)c1	26.9	27.2	32.9	> 100	–	–	–	–	–	–	–	–	–	–	–	–	–	–	–	–
NC1=C(Cl)C(=O)c2ccccc2C1=O	30.4	18.9	30.8	32.5	26 µM	18.5 µM	35.7	2.05 µM	3.19 µM	5.25 µM	–	–	–	–	–	–	–	–	–	–
C[Si]12OCCCN(CCO1)CCO2	> 100	> 100	> 100	> 100	> 100 µM	> 100 µM	> 100	–	–	–	–	–	–	–	–	–	–	–	–	–
CC1CC2(CCC1OCc1ccccc1)OCCO2 (stereo unspecified)	> 100	> 100	> 100	> 100	> 100 µM	> 100 µM	> 100	–	–	–	–	–	–	–	–	–	–	–	–	–
CC(=O)O[C@H]1CC[C@@]2(C)C(=CC[C@@H]3C2CC[C@]2(C)Nc4[nH]ncc4CC32)C1 (stereo partly specified)	30.6	31.8	–	40.3	> 100 µM	–	> 100	–	–	–	–	–	–	–	–	–	–	–	–	–
COc1ccccc1NC(=O)CC(=O)NNCC(=O)Nc1nnc(-c2ccccc2)o1	> 100	> 100	> 100	–	> 100 µM	> 100 µM	> 100	–	–	–	–	–	–	–	–	–	–	–	–	–
Cc1cc(NC(=O)NC(=O)c2ccccc2NC(=O)CN)ccc1Oc1ncc(Br)cn1	–	38.1	2.24	–	27.7 µM and 49.5 µM	2.24 µM and 0.472 µM	–	1.78 µM and 0.494 µM	1.1 µM and 0.178 µM	23.3 µM and > 100 µM	0.0399	0.0653	0.0271	0.0476	0.284	0.269 µM and 0.096 µM	< 0.01	0.174	–	–
CCC[CH2][Sn]1([CH2]CCC)[O]C(=O)CN=Cc2ccccc2[O]1	2.34	2.12	1.27	–	> 100 µM	0.173 µM	–	–	–	–	–	1.08	–	–	2.27	0.0349 µM	–	–	0.864	0.298 µM
CC1=CC2CC(C)C1(C)CCc1ccoc12 (stereo unspecified)	> 100	> 100	> 100	> 100	> 100 µM	–	> 100	–	–	–	–	–	–	–	–	–	–	–	–	–
O=[N+]([O-])c1ccc(N=Nc2c(O)[nH]c3ccccc23)cc1	> 100	–	> 100	> 80.1	41.4 µM	34.6 µM	39.5	> 100 µM	> 100 µM	> 100 µM	–	–	–	–	–	–	–	–	–	–
C=CCN(CC=C)CC(C(C)=O)C(c1ccccc1)c1c(O)c2ccccc2oc1=O (stereo unspecified)	> 100	> 100	> 100	> 100	> 100 µM	> 100 µM	> 100	–	–	–	–	–	–	–	–	–	–	–	–	–
O=C(O)c1ccc(C2C3C=CC(C3)C2[N+](=O)[O-])cc1 (stereo unspecified)	> 100	> 100	> 100	> 100	> 100 µM	> 100 µM	> 100	–	–	–	–	–	–	–	–	–	–	–	–	–
Cn1c(=O)oc2cc(C3CCC(=O)N3Cc3ccc(Cl)cc3)ccc21 (stereo unspecified)	> 100	> 100	> 100	> 100	> 100 µM	> 100 µM	–	–	–	–	–	–	–	–	–	–	–	–	–	–
CC(C)=CC1CC(C)C2(CCC3(C)CC4C(C(=O)CC4(C)O)/C(C=O)=C\CC32)O1 (stereo unspecified)	0.102	–	0.153	0.0422	0.296 µM	0.097 µM	0.979	0.197 µM	0.258 µM	0.684 µM	–	–	–	–	–	–	–	–	–	–
COc1ccccc1NC(=O)C1=C(C)NC(C)=C(C(=O)Nc2ccccc2OC)C1c1cccc2c1OCO2	> 100	> 100	> 100	> 100	> 100 µM	–	> 100	–	–	–	–	–	–	–	–	–	–	–	–	–
O=C(O)CCCNS(=O)(=O)c1ccc2ccccc2c1	> 100	> 100	> 100	> 100	> 100 µM	> 100 µM	> 100	–	–	–	–	–	–	–	–	–	–	–	–	–
CC(=O)OC12CC(C)C3(O)C4C=C(C)C(=O)[C@@]4(O)CC(CO)=C[C@H]3C1C2(C)C (stereo partly specified)	> 1000	–	–	> 1000	> 1000 µM	> 1000 µM	–	–	–	> 1000 µM	0.205	> 1000	0.239	–	> 1000	> 1000 µM	0.346	> 1000	–	0.522 µM and 0.903 µM
CCOC(=O)c1cnc2cc3cccccc3n2c1=O	> 100	> 100	> 100	> 100	> 100 µM	–	> 100	–	–	–	–	–	–	–	–	–	–	–	–	–
